Data as given in patent EP0777471B1, “INHIBITION OF LEUKOTRIENE BIOSYNTHESIS WITH UREA DERIVATIVES” (MINNESOTA MINING AND MANUFACTURING COMPANY, priority 1994, dated 1996).

What was measured:
5-lipoxygenase = target: T1, 5-lipoxygenase (Homo sapiens, UniProt P09917); assay: 5-Lipoxygenase inhibition in human leukocytes (A23187-stimulated, LTC4 radioimmunoassay); assay type: cell-based; settings: human leukocytes, A23187 Calcium Ionophore, LTC4 formed; read-out: IC50
T1 construct: Whole human blood is collected by venipuncture into EDTA; endogenous in cells; host or cells: leukocytes isolated from whole human blood (dextran sedimentation, hypotonic lysis)
T1 sequence (P09917 1-674): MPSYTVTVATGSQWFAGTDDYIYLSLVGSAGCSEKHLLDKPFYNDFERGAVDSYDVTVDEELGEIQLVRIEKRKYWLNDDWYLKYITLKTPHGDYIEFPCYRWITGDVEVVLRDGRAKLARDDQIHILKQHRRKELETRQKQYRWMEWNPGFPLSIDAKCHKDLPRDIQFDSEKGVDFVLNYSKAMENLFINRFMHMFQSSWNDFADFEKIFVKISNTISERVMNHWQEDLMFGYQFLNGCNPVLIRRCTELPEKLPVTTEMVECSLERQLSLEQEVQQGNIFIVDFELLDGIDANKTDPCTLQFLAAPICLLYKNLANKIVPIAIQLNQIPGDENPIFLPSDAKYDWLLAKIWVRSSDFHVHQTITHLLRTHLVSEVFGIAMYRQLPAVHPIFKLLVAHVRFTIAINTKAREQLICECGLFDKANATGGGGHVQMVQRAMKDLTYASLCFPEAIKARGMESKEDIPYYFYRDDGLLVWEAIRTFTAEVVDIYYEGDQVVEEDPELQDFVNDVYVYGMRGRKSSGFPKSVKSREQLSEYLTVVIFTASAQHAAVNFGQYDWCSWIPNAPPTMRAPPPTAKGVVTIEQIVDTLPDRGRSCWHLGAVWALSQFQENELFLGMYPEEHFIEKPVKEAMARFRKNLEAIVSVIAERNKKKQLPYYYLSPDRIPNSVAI
Method: The test method described below measures the ability of compounds to inhibit 5-lipoxygenase activity in human leukocytes.
Whole human blood is collected by venipuncture into EDTA (1.4 mL of 0.25M per 60 mL of whole blood). The red blood cells are sedimented with a 6% dextran/0.9% sodium chloride solution at a ratio of 25 mL whole blood to 15 mL dextran solution. The blood/dextran combination is mixed by inversion and the red blood cells are allowed to settle out for 45 minutes at ambient temperature. The plasma/dextran supernatant is removed then centrifuged at ambient temperature at 3000 rpm for 10 minutes. The plasma/dextran supernatant is removed and the cells are resuspended in 10 mL of the plasma/dextran solution. […] The pellet is then resuspended into Tris buffer containing 1 mM calcium chloride to provide approximately 1.0 X 10^7 cells/mL.
Compounds are dissolved in dimethyl sulfoxide. […] Each concentration is tested in duplicate.
A 15 µL portion of Tris buffer containing 1 mM calcium chloride is added to each well of a 96 well microtiter plate. A 1 µL portion of drug solution or vehicle (dimethyl sulfoxide) is added to each well followed by the addition of an 75 µL portion of the cell suspension. The plates are gently mixed then allowed to stand at ambient temperature for 10 minutes. A 10 µL portion of 30 µM A23187 Calcium Ionophore (prepared by dissolving the ionophore in DMSO and then diluting 1:80 into the Tris buffer) is added to each well except the wells that contain the blanks (The blank wells measure the level of LTC4 production in the absence of A23187.). The plates are gently mixed then incubated at 37°C for 10 minutes.
Following incubation the plates are centrifuged at 2000 rpm for 1.5 minutes and the supernatant is removed as quickly as possible to stop the reaction. The supernatants are frozen at -20°C until they are assayed.
The supernatants are assayed for the presence of Leukotriene C4 by radioimmunoassay which is performed according to the manufacturer's (Advanced Magnetics; Cambridge, MA) instructions.

[1] = test system: production of Leukotriene C4 in mouse peritoneal macrophages; assay: In vitro mouse peritoneal macrophage Leukotriene C4 inhibition (zymosan-stimulated, LTC4 radioimmunoassay); assay type: cell-based; settings: Zymosan 50 µg/mL
How it was run: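 Adherent peritoneal macrophages from female CD-1 mice were preincubated 15 minutes at 37°C with compound (10, 1 and 0.1 µM, duplicate; DMSO). They were then stimulated with 50 µg/mL zymosan for 1 to 2 hours. Leukotriene C4 released into the medium was measured by radioimmunoassay.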

[2] = test system: production of Leukotriene B4; assay: Rat ex vivo Leukotriene B4 inhibition (oral dosing, blood challenged with A23187); assay type: in vivo, Rats; settings: two hours post dose
How it was run: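 Male CD rats (250 g, non-fasted) dosed orally with compound in PEG 400, 5 rats/group; blood drawn by cardiac puncture before and 2 h after dosing. Heparinized blood challenged with A23187 calcium ionophore, 30 min at 37°C; plasma LTB4 measured by radioimmunoassay. % inhibition = post-dose vs pre-dose LTB4 level.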

Row | IC50 (5-lipoxygenase) | IC50 [1] | Compound | %I ([2]; 25 mg/Kg) | %I ([2]; 20 mg/Kg) | %I ([2]; 50 mg/Kg)
1 | 460 nM | > 10000 nM | CSc1cccc(NC(=O)NO)c1 [Compound 34, 1-hydroxy-3-[3-(methylthio)phenyl]urea] | -2.9% | – | –
2 | 30 nM | 900 nM | CCN(O)C(=O)Nc1ccccc1 [Compound 43, 1-ethyl-1-hydroxy-3-phenylurea] | – | 12% | 16%
